Source: BindingDB's records for doi:10.1111/cbdd.12778 (Shandong University, 2016)
pIC50: −log10 of the molar value.

Columns and labels:
[1] = molecular target: T1, Aminopeptidase N (Sus scrofa, UniProt P15145); assay: APN Inhibition Assay; conditions: pH 7.2
T1 sequence (P15145 whole entry): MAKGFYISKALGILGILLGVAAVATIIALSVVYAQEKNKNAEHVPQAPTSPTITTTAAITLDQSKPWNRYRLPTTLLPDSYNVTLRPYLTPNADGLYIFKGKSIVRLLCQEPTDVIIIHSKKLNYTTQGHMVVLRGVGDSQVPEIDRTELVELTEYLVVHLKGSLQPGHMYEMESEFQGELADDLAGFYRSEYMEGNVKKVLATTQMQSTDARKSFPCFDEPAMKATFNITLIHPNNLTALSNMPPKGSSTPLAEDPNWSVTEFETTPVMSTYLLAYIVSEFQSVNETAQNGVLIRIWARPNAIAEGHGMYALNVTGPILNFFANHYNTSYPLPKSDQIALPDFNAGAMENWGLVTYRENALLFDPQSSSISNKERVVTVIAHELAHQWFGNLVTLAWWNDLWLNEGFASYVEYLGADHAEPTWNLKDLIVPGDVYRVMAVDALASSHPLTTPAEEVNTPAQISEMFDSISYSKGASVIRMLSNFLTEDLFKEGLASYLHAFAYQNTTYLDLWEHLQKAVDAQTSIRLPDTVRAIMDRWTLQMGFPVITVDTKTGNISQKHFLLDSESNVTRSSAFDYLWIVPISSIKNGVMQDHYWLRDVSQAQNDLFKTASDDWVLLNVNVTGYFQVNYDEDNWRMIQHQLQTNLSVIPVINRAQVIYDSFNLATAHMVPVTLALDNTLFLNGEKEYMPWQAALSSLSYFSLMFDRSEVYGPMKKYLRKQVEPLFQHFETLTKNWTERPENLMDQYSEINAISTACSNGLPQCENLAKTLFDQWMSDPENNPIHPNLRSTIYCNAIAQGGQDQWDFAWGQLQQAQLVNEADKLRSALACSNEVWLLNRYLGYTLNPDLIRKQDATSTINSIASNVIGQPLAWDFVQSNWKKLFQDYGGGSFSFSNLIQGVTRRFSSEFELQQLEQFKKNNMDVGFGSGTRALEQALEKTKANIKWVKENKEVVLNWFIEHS
Protocol: Briefly, the assay was performed in 96-well plates in […] PBS, pH 7.2 as the assay buffer, at 37 °C. The APN solution was mixed with compounds at various concentrations and incubated at 37 °C for 5 min. Subsequently, the substrate (l-leucine-p-nitroanilide) was added and the mixture was incubated for 30 min at 37°C.

[2] = molecular target: T2, Histone deacetylase 8 (Homo sapiens, UniProt Q9BY41); assay: In vitro HDAC8 Assay
T2 sequence (Q9BY41 whole entry): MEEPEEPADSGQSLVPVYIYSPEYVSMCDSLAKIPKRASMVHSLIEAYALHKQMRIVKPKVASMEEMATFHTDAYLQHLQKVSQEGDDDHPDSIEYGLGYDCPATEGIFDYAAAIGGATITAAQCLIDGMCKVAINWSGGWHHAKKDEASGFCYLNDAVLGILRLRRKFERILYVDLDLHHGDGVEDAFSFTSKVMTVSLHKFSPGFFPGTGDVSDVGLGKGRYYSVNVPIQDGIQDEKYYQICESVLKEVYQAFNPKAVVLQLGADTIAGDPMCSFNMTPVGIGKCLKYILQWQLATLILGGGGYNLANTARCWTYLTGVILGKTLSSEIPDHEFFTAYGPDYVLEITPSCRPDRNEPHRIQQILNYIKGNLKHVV
Protocol: Briefly, the HDAC8 enzyme was diluted 20 times. Then, 10 μL of HDAC8 solution was mixed with compounds at various concentrations (50 μL). Then, 40 μL of the substrate [Boc-Lys-(acetyl)-AMC, 300 μm] was added, and the mixture was incubated at 37 °C for 30 min. Subsequently, the reaction was stopped by the addition of 100 μL of developer containing trypsin (10 μg/mL) and TSA (2 μm). Fluorescence intensity was measured by a microplate reader at excitation and emission wavelengths of 390 and 460 nm, respectively.

Row | pIC50 [1] | pIC50 [2] | Compound
1 | < 4.00 | 5.37 | CC1(C)CCC(C)(C)c2cc(NC(=O)c3ccc(C(=O)NO)cc3)ccc21 [N1-hydroxy-N4-(5,5,8,8-tetramethyl-5,6,7,8-tetrahydronaphthalen-2-yl)terephthalamide (7b)]
2 | < 4.00 | – | O=C(CCCCCCC(=O)Nc1ccccc1)NO [Zolinza]
3 | < 4.00 | < 4.00 | CC1(C)CCC(C)(C)c2cc(NC(=O)c3ccc(C(=O)O)cc3)ccc21 [4-[(5,5,8,8-tetramethyl-5,6,7,8-tetrahydronaphthalen-2-yl)carbamoyl]benzoic acid]
